Experimental data from ChEMBL document CHEMBL1201862, “PubChem BioAssay data set” (2004).
Active and inactive are the calls of the source. Unless noted, the rule behind the calls is not given here.

Tests used:
[1] = biological target: Troponin, cardiac muscle (Homo sapiens, UniProt P19429+P45379+P63316); assay: Fluorescence-based biochemical high throughput dose response assay for activators of the calcium sensitivity of cardiac Regulated Thin Filaments (RTF). [Related pubchem assays (depositor defined):AID493008, AID493018, AID504382, AID504383]; format: protein-complex assay
[2] = biological target: DNA dC->dU-editing enzyme APOBEC-3G (Homo sapiens, UniProt Q9HC16); assay: Dose Response confirmation of small molecule APOBEC3G DNA Deaminase Inhibitors via a fluorescence-based single-stranded DNA deaminase assay. [Related pubchem assays (depositor defined):AID493012, AID493028]; format: functional
[3] = biological target: Peroxisome proliferator-activated receptor gamma/Nuclear receptor coactivator 3 (Homo sapiens, UniProt P37231); format: functional;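 also: agonist potency for raising coactivator recruitment to the receptor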
[4] = biological target: T1, Dual specificity protein phosphatase 3 (Homo sapiens, UniProt P51452); assay: SAR VHR1 Fluorescent Assay for In Vitro dose response studies Set 2. [Related pubchem assays (depositor defined):AID1654, AID1661, AID1878]; format: functional
[5] = biological target: T1, Dual specificity protein phosphatase 3; assay: VHR1 phosphatase inhibitors, biochemical (AID 1878)
[6] = biological target: T2, Dual specificity protein phosphatase 6 (Rattus norvegicus, UniProt Q64346); assay: SAR analysis of inhibitors of MKP-3 - Set 2. [Related pubchem assays (depositor defined):AID1055, AID1661, AID425, AID553, AID566]; format: functional
T2 sequence (Q64346 whole entry): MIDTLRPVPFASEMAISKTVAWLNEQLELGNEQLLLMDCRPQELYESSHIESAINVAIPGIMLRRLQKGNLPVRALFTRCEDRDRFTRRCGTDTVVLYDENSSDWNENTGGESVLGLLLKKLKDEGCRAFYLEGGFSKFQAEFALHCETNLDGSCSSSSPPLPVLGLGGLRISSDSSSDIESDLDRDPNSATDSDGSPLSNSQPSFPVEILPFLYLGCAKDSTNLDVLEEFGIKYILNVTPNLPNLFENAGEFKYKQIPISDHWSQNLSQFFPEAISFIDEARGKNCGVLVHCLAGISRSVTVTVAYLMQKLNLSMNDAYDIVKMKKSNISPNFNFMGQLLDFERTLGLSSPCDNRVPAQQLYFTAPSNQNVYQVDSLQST

[7] = biological target: T3, Tyrosine-protein phosphatase non-receptor type 7 (Homo sapiens, UniProt P35236); assay: SAR analysis of chemical inhibitors of HePTP using a Fluorescent assay - Set 2. [Related pubchem assays (depositor defined):AID1059, AID1077, AID1661, AID2085, AID521]; format: functional
T3 sequence (P35236 whole entry): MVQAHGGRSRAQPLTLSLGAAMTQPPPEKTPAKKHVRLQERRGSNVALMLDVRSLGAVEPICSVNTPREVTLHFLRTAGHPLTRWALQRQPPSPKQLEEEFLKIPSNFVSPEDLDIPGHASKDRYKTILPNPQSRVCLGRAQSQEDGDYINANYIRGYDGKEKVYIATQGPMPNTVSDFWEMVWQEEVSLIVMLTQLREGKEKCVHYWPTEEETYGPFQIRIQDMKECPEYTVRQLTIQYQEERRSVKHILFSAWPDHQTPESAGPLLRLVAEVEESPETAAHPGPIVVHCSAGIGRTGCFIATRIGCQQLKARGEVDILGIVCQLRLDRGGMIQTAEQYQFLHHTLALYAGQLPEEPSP

[8] = biological target: T1, Dual specificity protein phosphatase 3; assay: VHR1 phosphatase inhibitors, primary screen, biochemical, absorbance, uHTS (AID 1654)
[9] = biological target: Peroxisome proliferator-activated receptor gamma/Nuclear receptor coactivator 2 (Homo sapiens, UniProt P37231); format: functional;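 also: agonist potency for raising coactivator recruitment to the receptor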
[10] = biological target: T2, Dual specificity protein phosphatase 6; assay: MKP-3 phosphatase inhibitors, primary screen, biochemical, rat enzyme, in vitro (AID 425)
[11] = biological target: DNA dC->dU-editing enzyme APOBEC-3A (Homo sapiens, UniProt P31941); assay: APOBEC3A DNA deaminase inhibitors, dose response, biochemical (AID 504722); format: functional
[12] = biological target: T2, Dual specificity protein phosphatase 6; format: functional
[13] = biological target: Peroxisome proliferator-activated receptor gamma/Nuclear receptor coactivator 1 (Homo sapiens, UniProt P37231); format: functional;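 also: agonist potency as compounds enhance coactivator SRC-1 recruitment to PPARgamma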
[14] = biological target: T3, Tyrosine-protein phosphatase non-receptor type 7; assay: redox-dependent HePTP inhibition, mechanism study, biochemical, fluorescence (AID 2068); format: functional
[15] = biological target: T1, Dual specificity protein phosphatase 3; assay: SAR VHR1 Fluorescent Assay for In Vitro dose response studies. [Related pubchem assays (depositor defined):AID1654, AID1661, AID1878, AID1992, AID2004, AID2070, AID2085]; format: functional
[16] = biological target: Glucose-6-phosphate 1-dehydrogenase (Homo sapiens, UniProt P11413); assay: human G6PD enzyme inhibitors, dose response, selectivity assay for P. falciparum G6PD inhibitor project, biochemical, fluorescence (AID 504792); format: functional
[17] = biological target: T1, Dual specificity protein phosphatase 3; assay: SAR VHR1 absorbance Assay for In Vitro dose response studies. [Related pubchem assays (depositor defined):AID1654, AID1661, AID1878, AID1992, AID2004]
[18] = biological target: Hexokinase-1 (Homo sapiens, UniProt P19367); assay: hexokinase 1 activators, dose response, selectivity assay for HKDC1 activator project, biochemical (AID 504762); format: functional
[19] = biological target: Hexokinase HKDC1 (Homo sapiens, UniProt Q2TB90); assay: HKDC1 hexokinase activators, dose response, biochemical, W721R variant (AID 504730); format: functional
[20] = biological target: T4, Mu-type opioid receptor (Homo sapiens, UniProt P35372); assay: SAR Analysis of Agonists of the MOR Receptor using an Image-Based Assay - Set 2. [Related pubchem assays (depositor defined):AID1777, AID1785, AID1786, AID1966, AID2133, AID2136, AID2284, AID2285, AID2352]; format: functional
[21] = biological target: T5, Delta-type opioid receptor (Homo sapiens, UniProt P41143); assay: SAR Analysis of Antagonists of the DOR Receptor using an Image-Based Assay - Set 2. [Related pubchem assays (depositor defined):AID1777, AID1785, AID1786, AID1966, AID2133, AID2136, AID2284, AID2285, AID2357]; format: functional
[22] = biological target: T6, Kappa-type opioid receptor (Homo sapiens, UniProt P41145); assay: SAR analysis of Agonists of the Kappa Opioid Receptor (KOR) using an Image-Based Assay - Set 2. [Related pubchem assays (depositor defined):AID1777, AID1786, AID1966, AID2133, AID2136, AID2284, AID2285, AID2359]; format: functional
[23] = biological target: T6, Kappa-type opioid receptor; assay: SAR analysis of Antagonists of the Kappa Opioid Receptor (KOR) using an Image-Based Assay - Set 2. [Related pubchem assays (depositor defined):AID1777, AID1785, AID1786, AID1966, AID2133, AID2136, AID2284, AID2285, AID2348]; format: functional
[24] = biological target: T5, Delta-type opioid receptor; assay: SAR Analysis of Agonists of the DOR Receptor using an Image-Based Assay - Set 2. [Related pubchem assays (depositor defined):AID1777, AID1785, AID1786, AID1966, AID2133, AID2136, AID2284, AID2285, AID2370]; format: functional
[25] = biological target: T4, Mu-type opioid receptor; assay: SAR Analysis of Antagonists of the MOR Receptor using an Image-Based Assay - Set 2. [Related pubchem assays (depositor defined):AID1777, AID1785, AID1786, AID1966, AID2133, AID2136, AID2284, AID2285, AID2420]; format: functional
[26] = biological target: T6, Kappa-type opioid receptor; assay: SAR analysis of small molecule agonists of the kappa opioid receptor via a luminescent beta-arrestin assay - Set 2. [Related pubchem assays (depositor defined):AID1777, AID1785, AID1786, AID1966, AID2133, AID2136, AID2284, AID449737]; format: functional

T6 sequence (P41145 whole entry): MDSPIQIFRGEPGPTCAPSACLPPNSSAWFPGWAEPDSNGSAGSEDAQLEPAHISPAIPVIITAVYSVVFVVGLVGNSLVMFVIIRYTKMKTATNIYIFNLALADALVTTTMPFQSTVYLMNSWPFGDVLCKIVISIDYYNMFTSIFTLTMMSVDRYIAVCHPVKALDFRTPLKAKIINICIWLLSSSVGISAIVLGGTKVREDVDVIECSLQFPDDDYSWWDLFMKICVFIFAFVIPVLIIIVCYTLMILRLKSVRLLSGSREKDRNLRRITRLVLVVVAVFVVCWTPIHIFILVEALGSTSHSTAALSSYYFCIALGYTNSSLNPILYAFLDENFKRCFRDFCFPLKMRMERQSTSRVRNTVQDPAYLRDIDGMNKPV
T1 sequence (P51452 whole entry): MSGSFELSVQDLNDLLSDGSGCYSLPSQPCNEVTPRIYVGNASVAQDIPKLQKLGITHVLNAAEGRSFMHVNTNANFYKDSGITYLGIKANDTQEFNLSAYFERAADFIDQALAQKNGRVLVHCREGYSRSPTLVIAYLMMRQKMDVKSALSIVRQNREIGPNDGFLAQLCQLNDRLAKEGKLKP
T5 sequence (P41143 whole entry): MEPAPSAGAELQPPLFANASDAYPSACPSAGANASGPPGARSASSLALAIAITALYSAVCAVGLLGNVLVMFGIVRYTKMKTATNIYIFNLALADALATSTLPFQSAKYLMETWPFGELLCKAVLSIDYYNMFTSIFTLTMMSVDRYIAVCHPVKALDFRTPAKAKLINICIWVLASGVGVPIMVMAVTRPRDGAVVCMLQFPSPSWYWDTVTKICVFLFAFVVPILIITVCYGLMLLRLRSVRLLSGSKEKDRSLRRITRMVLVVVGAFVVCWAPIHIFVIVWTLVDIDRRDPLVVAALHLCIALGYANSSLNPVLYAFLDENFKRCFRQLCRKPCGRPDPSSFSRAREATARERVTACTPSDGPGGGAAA
T4 sequence (P35372 whole entry): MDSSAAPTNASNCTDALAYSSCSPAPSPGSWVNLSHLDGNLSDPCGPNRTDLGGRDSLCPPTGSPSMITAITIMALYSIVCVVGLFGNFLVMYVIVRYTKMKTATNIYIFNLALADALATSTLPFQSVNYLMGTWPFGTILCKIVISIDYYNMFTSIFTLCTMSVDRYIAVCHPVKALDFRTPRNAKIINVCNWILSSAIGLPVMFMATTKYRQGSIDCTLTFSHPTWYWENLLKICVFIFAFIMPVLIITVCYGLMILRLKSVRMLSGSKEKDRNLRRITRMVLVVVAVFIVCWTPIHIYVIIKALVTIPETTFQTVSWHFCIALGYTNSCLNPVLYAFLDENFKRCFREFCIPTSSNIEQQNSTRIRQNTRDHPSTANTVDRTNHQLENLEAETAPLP
Chain of Hexokinase-1 (P19367 whole entry): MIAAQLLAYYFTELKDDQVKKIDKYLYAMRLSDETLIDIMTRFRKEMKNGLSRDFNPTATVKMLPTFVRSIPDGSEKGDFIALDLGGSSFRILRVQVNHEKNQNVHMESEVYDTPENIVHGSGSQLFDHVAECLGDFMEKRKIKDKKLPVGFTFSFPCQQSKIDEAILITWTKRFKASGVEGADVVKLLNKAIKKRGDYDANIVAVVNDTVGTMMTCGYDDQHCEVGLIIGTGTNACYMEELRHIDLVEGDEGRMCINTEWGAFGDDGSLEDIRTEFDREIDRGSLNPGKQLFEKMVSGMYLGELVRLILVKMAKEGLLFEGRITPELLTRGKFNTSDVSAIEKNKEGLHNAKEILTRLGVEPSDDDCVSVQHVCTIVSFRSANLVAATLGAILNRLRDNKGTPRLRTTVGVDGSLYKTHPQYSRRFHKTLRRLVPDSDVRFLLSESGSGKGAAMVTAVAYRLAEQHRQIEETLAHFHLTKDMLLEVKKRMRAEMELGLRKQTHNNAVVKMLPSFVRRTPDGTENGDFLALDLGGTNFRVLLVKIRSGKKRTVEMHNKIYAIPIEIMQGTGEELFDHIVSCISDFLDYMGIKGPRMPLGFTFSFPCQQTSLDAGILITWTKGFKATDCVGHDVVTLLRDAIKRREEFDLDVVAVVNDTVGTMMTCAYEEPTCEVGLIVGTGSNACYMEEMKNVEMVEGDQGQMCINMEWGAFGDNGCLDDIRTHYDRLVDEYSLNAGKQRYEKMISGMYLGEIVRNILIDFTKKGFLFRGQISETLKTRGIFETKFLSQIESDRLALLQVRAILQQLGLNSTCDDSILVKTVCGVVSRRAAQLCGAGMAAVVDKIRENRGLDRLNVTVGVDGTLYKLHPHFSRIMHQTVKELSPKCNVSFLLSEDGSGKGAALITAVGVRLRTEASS
Chain of Hexokinase HKDC1 (Q2TB90 whole entry): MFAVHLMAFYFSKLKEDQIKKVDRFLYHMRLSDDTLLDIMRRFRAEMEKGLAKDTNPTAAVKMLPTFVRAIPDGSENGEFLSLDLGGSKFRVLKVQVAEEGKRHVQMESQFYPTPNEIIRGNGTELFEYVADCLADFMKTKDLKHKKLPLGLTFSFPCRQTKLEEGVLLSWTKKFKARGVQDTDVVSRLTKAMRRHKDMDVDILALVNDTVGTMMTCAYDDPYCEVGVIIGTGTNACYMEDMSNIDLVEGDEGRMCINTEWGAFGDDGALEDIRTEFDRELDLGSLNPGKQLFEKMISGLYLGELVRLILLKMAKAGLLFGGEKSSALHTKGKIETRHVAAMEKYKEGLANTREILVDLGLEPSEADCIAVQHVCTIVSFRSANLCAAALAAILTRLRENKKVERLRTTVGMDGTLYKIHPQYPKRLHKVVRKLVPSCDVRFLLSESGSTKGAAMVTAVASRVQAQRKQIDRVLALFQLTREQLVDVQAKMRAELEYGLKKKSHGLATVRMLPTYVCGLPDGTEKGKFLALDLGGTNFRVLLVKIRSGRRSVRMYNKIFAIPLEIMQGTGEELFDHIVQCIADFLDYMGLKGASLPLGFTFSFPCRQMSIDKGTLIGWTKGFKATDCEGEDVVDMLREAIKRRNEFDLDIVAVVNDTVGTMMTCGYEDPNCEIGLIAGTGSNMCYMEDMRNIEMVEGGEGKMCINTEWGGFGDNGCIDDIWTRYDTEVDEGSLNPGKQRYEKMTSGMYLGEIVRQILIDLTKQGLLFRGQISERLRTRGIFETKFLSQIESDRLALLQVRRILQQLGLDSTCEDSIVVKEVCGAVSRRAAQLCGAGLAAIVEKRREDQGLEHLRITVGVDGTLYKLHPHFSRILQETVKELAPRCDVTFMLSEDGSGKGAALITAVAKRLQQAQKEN
Chain of DNA dC->dU-editing enzyme APOBEC-3G (Q9HC16 whole entry): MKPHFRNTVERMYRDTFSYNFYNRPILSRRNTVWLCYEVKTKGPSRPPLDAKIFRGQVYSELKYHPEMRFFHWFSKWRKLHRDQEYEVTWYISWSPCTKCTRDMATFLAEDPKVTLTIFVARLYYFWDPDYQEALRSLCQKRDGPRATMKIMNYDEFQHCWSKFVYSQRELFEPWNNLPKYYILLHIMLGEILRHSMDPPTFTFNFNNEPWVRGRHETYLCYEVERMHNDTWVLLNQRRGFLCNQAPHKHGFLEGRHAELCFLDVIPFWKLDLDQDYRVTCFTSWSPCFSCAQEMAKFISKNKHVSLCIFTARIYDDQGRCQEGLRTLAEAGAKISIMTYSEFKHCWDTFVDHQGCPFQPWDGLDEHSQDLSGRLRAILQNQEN
Chain of DNA dC->dU-editing enzyme APOBEC-3A (P31941 whole entry): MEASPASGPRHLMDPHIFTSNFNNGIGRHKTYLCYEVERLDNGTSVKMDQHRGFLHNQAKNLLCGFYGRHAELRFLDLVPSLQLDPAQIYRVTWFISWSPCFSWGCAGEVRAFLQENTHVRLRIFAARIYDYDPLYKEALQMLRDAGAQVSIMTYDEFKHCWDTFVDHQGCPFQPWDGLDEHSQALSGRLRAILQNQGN
Chain of Glucose-6-phosphate 1-dehydrogenase (P11413 whole entry): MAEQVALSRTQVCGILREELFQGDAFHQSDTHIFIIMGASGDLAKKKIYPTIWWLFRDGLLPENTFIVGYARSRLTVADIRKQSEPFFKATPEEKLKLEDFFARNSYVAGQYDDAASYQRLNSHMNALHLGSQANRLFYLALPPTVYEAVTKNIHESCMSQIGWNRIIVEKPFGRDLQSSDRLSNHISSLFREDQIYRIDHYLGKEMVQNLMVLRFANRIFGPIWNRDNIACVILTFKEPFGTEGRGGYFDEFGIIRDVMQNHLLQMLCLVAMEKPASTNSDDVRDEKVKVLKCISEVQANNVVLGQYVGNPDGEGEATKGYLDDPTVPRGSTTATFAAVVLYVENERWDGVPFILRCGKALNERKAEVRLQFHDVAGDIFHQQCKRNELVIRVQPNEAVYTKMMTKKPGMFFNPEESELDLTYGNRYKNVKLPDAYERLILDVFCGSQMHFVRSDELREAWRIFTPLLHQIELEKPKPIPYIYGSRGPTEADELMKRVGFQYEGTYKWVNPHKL

SMILES: C=CCN1C(=O)c2ccccc2NC1c1cc(Br)cs1 (stereo unspecified)
- EC50 [1]: > 71.5 µM (inactive)

SMILES: Cc1ccc(-n2c(N)c(C(=O)N3CCN(C)CC3)sc2=S)cc1
- IC50 [2]: 7.99 µM (active)
- EC50 [3]: > 79.4 µM (not active)
- IC50 [4]: 0.402 µM (active)
- IC50 [5]: 5.73 µM (active)
- IC50 [6]: > 100 µM (inactive)
- IC50 [7]: 0.455 µM (active)
- IC50 [8]: 2.33 µM (active)
- EC50 [9]: > 79.4 µM (not active)
- IC50 [10]: > 158 µM (not active)
- IC50 [11]: > 100 µM (inactive)
- IC50 [12]: > 99 µM (inactive)
- EC50 [13]: > 79.4 µM (not active)
- IC50 [14]: 0.0144 µM (active)
- IC50 [15]: > 99 µM (inactive)
- IC50 [16]: > 80 µM (inactive)
- IC50 [17]: 0.25 µM (active)

SMILES: CC12CCC(C(=O)N/N=C/c3ccc(O)cc3O)(OC1=O)C2(C)C (stereo unspecified)
- EC50 [18]: > 80 µM (inactive)
- EC50 [19]: > 80 µM (inactive)

SMILES: Fc1ccc(CSc2nnc(-c3ccccn3)n2Cc2cccs2)c(F)c1
- EC50 [20]: > 32 µM (inactive)
- IC50 [21]: > 32 µM (inactive)
- EC50 [22]: 5.68 µM (active)
- IC50 [23]: > 32 µM (inactive)
- EC50 [24]: > 32 µM (inactive)
- IC50 [25]: > 32 µM (inactive)
- EC50 [26]: 6.73 µM (active)
